Source: the supplement of paper PMC11451515

Key:
Conditions in all cases: 48 h
[1] = system: SEM cells; experiment: cell viability relative to DMSO control; higher = less cytotoxic
Procedure, shortened: (§1)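 Cells were incubated for 48 h at 37°C before CellTiter-Glo One luminescence was read. The cells were NOMO1 or SEM (500 cells/well) or P12-Ichikawa (1000 cells/well) leukemia cells, adapted for at least four passages in each medium and seeded in 1536-well plates (5 μl). Dosing used library compounds in DMSO applied by pin over 11 threefold points, 47 μM to 0.79 nM. Viability is the per-plate percentage of DMSO wells, with cell-free wells as background.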

[2] = system: NOMO1; experiment: as above
Procedure, shortened: as §1

[3] = system: P12-Ichikawa; experiment: as above
Procedure, shortened: as §1

[4] = system: SEM cells; experiment: AUC of viability dose-response curve (% viability x log10 dose units); higher = less sensitive
Procedure, shortened: (§2)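 Leukemia cells adapted to each medium were seeded in 1536-well plates (500 or 1000 cells/well). They were dosed with library compounds in DMSO at 11 threefold doses, 47 μM to 0.79 nM, for 48 h at 37°C. CellTiter-Glo One luminescence was normalised per plate to DMSO and cell-free wells. Area under the curve was integrated by trapezoidal rule over log10 doses on a four-parameter log-logistic fit; curves exceeding full viability were scaled and curves failing quality control removed.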

[5] = system: NOMO1; experiment: as above
Procedure, shortened: as §2

[6] = system: P12-Ichikawa; experiment: as above
Procedure, shortened: as §2

C[C@H]1Oc2cc(cnc2N)-c2c(nn(C)c2C#N)CN(C)C(=O)c2ccc(F)cc21
cell viability [%]
Conditions	[1]	[2]	[3]
HPLM + 10% dialyzed FBS, 0.000781 µM	111	–	118
HPLM + 10% dialyzed FBS, 0.00234 µM	138	–	120
HPLM + 10% dialyzed FBS, 0.00702 µM	114	–	119
HPLM + 10% dialyzed FBS, 0.0211 µM	118	–	120
HPLM + 10% dialyzed FBS, 0.0632 µM	109	–	120
HPLM + 10% dialyzed FBS, 0.19 µM	126	–	124
HPLM + 10% dialyzed FBS, 0.569 µM	124	–	122
HPLM + 10% dialyzed FBS, 1.71 µM	121	–	110
HPLM + 10% dialyzed FBS, 5.12 µM	117	–	112
HPLM + 10% dialyzed FBS, 15.4 µM	107	–	112
HPLM + 10% dialyzed FBS, 46.1 µM	93.7	–	96.3
RPMI 5 mM glucose + 10% FBS, 0.000781 µM	110	106	120
RPMI 5 mM glucose + 10% FBS, 0.00234 µM	108	132	122
RPMI 5 mM glucose + 10% FBS, 0.00702 µM	110	125	123
RPMI 5 mM glucose + 10% FBS, 0.0211 µM	109	108	113
RPMI 5 mM glucose + 10% FBS, 0.0632 µM	78.1	119	123
RPMI 5 mM glucose + 10% FBS, 0.19 µM	85.3	126	119
RPMI 5 mM glucose + 10% FBS, 0.569 µM	102	123	119
RPMI 5 mM glucose + 10% FBS, 1.71 µM	110	123	112
RPMI 5 mM glucose + 10% FBS, 5.12 µM	97.4	131	114
RPMI 5 mM glucose + 10% FBS, 15.4 µM	81.5	106	114
RPMI 5 mM glucose + 10% FBS, 46.1 µM	60.3	101	105
RPMI 5 mM glucose + 10% dialyzed FBS, 0.000781 µM	118	–	–
RPMI 5 mM glucose + 10% dialyzed FBS, 0.00234 µM	128	–	–
RPMI 5 mM glucose + 10% dialyzed FBS, 0.00702 µM	115	–	–
RPMI 5 mM glucose + 10% dialyzed FBS, 0.0211 µM	130	–	–
RPMI 5 mM glucose + 10% dialyzed FBS, 0.0632 µM	131	–	–
RPMI 5 mM glucose + 10% dialyzed FBS, 0.19 µM	133	–	–
RPMI 5 mM glucose + 10% dialyzed FBS, 0.569 µM	145	–	–
RPMI 5 mM glucose + 10% dialyzed FBS, 1.71 µM	132	–	–
RPMI 5 mM glucose + 10% dialyzed FBS, 5.12 µM	129	–	–
RPMI 5 mM glucose + 10% dialyzed FBS, 15.4 µM	122	–	–
RPMI 5 mM glucose + 10% dialyzed FBS, 46.1 µM	116	–	–

AUC of viability dose-response curve
Conditions	[4]	[5]	[6]
HPLM + 10% dialyzed FBS	446	459	462
RPMI 5 mM glucose + 10% FBS	457	467	463
RPMI 5 mM glucose + 10% dialyzed FBS	473	463	461

Cc1ccc(/C=N/NC(=O)c2ccccc2Oc2ccccc2)o1
cell viability [%]
Conditions	[1]	[2]	[3]
HPLM + 10% dialyzed FBS, 0.000781 µM	102	102	95.5
HPLM + 10% dialyzed FBS, 0.00234 µM	101	100	107
HPLM + 10% dialyzed FBS, 0.00702 µM	87	104	91.4
HPLM + 10% dialyzed FBS, 0.0211 µM	85.8	97.7	96.5
HPLM + 10% dialyzed FBS, 0.0632 µM	109	101	100
HPLM + 10% dialyzed FBS, 0.19 µM	96.9	102	98.3
HPLM + 10% dialyzed FBS, 0.569 µM	89.6	104	94.6
HPLM + 10% dialyzed FBS, 1.71 µM	94.9	91.3	94.9
HPLM + 10% dialyzed FBS, 5.12 µM	93.5	98	89.7
HPLM + 10% dialyzed FBS, 15.4 µM	91.7	81.5	89.7
HPLM + 10% dialyzed FBS, 46.1 µM	90.9	69.6	79.4
RPMI 5 mM glucose + 10% FBS, 0.000781 µM	107	102	94
RPMI 5 mM glucose + 10% FBS, 0.00234 µM	98.2	96.4	99
RPMI 5 mM glucose + 10% FBS, 0.00702 µM	93	97.2	90.6
RPMI 5 mM glucose + 10% FBS, 0.0211 µM	106	88.7	88.5
RPMI 5 mM glucose + 10% FBS, 0.0632 µM	102	86.7	91.3
RPMI 5 mM glucose + 10% FBS, 0.19 µM	104	91.2	90.8
RPMI 5 mM glucose + 10% FBS, 0.569 µM	99.4	88	91.6
RPMI 5 mM glucose + 10% FBS, 1.71 µM	104	80.4	92.2
RPMI 5 mM glucose + 10% FBS, 5.12 µM	93.6	83.5	95.1
RPMI 5 mM glucose + 10% FBS, 15.4 µM	98.6	83.3	85.8
RPMI 5 mM glucose + 10% FBS, 46.1 µM	90.5	80.9	63.9
RPMI 5 mM glucose + 10% dialyzed FBS, 0.000781 µM	147	98.9	85.2
RPMI 5 mM glucose + 10% dialyzed FBS, 0.00234 µM	102	96.3	82.6
RPMI 5 mM glucose + 10% dialyzed FBS, 0.00702 µM	91.7	95.1	87.7
RPMI 5 mM glucose + 10% dialyzed FBS, 0.0211 µM	102	89.4	89.4
RPMI 5 mM glucose + 10% dialyzed FBS, 0.0632 µM	91.8	113	90.3
RPMI 5 mM glucose + 10% dialyzed FBS, 0.19 µM	101	101	90.3
RPMI 5 mM glucose + 10% dialyzed FBS, 0.569 µM	97.5	95.6	88.8
RPMI 5 mM glucose + 10% dialyzed FBS, 1.71 µM	97.4	96.3	82.4
RPMI 5 mM glucose + 10% dialyzed FBS, 5.12 µM	66.5	85.9	82.3
RPMI 5 mM glucose + 10% dialyzed FBS, 15.4 µM	92.5	96.9	86.4
RPMI 5 mM glucose + 10% dialyzed FBS, 46.1 µM	73.4	86.3	78.3

AUC of viability dose-response curve
Conditions	[4]	[5]	[6]
HPLM + 10% dialyzed FBS	452	456	452
RPMI 5 mM glucose + 10% FBS	468	418	432
RPMI 5 mM glucose + 10% dialyzed FBS	388	457	410
